{"source": "patent US12364709B2", "about": "“Bioavailable poly amines” (AMINEX THERAPEUTICS, INC., priority 2016, dated 2025)", "assay": "28-day repeat-dose toxicity study, toxicokinetics of AMXT 1501 dicaprate", "format": "in vivo, beagle dogs", "conditions": "both sexes, beagle, dog, plasma, po", "experimental": "AMXT 1501 PK parameters were calculated for all AMXT 1501 dicaprate-dosed animals for the first dose (Day 1) and last dose (Day 28).", "note": "Read-outs that look alike come from different tables or passages of the source."}
{"smiles": "CCCCCCCCCCCCCCCC(=O)NCCCC[C@@H](N)C(=O)NCCCNCCCCNCCCN", "note": "[AMXT 1501 dicaprate]", "values": [{"measurement": "AUC(0-t)", "setting": "16 mg/kg/day, 16 mg/kg/day PO, DFMO 0, Day 28, M+F combined, read-out: AUC0-t Median", "value": 8.12, "unit": "µg·h/mL"}, {"measurement": "AUC(0-inf)", "setting": "16 mg/kg/day, 16 mg/kg/day PO, DFMO 0, Day 28, M+F combined, read-out: AUC0-∞ Mean", "value": 8.07, "unit": "µg·h/mL"}, {"measurement": "AUC(0-inf)", "setting": "16 mg/kg/day, 16 mg/kg/day PO, DFMO 0, Day 28, M+F combined, read-out: AUC0-∞ Median", "value": 8.28, "unit": "µg·h/mL"}, {"measurement": "Cmax", "setting": "16 mg/kg/day, 16 mg/kg/day PO, DFMO 0, Day 28, M+F combined, read-out: Cmax Mean", "value": 0.286, "unit": "µg/mL"}, {"measurement": "Cmax", "setting": "16 mg/kg/day, 16 mg/kg/day PO, DFMO 0, Day 28, M+F combined, read-out: Cmax Median", "value": 0.309, "unit": "µg/mL"}, {"measurement": "Tmax", "setting": "16 mg/kg/day, 16 mg/kg/day PO, DFMO 0, Day 28, M+F combined, read-out: Tmax Mean", "value": 5.6, "unit": "h"}, {"measurement": "Tmax", "setting": "16 mg/kg/day, 16 mg/kg/day PO, DFMO 0, Day 28, M+F combined, read-out: Tmax Median", "value": 6, "unit": "h"}, {"measurement": "half-life", "setting": "16 mg/kg/day, 16 mg/kg/day PO, DFMO 0, Day 28, M+F combined, read-out: t1/2 Mean (converted)", "value": 25.4, "unit": "h"}, {"measurement": "half-life", "setting": "16 mg/kg/day, 16 mg/kg/day PO, DFMO 0, Day 28, M+F combined, read-out: t1/2 Median (converted)", "value": 27.8, "unit": "h"}, {"measurement": "AUC(0-t)", "setting": "16 mg/kg/day, 16 mg/kg/day PO, DFMO 50 mg/kg/day, Day 28, M+F combined, read-out: AUC0-24 hr Mean", "value": 4.39, "unit": "µg·h/mL"}, {"measurement": "AUC(0-t)", "setting": "16 mg/kg/day, 16 mg/kg/day PO, DFMO 50 mg/kg/day, Day 28, M+F combined, read-out: AUC0-24 hr Median", "value": 3.34, "unit": "µg·h/mL"}, {"measurement": "AUC(0-t)", "setting": "16 mg/kg/day, 16 mg/kg/day PO, DFMO 50 mg/kg/day, Day 28, M+F combined, read-out: AUC0-t Mean", "value": 9.44, "unit": "µg·h/mL"}, {"measurement": "AUC(0-t)", "setting": "16 mg/kg/day, 16 mg/kg/day PO, DFMO 50 mg/kg/day, Day 28, M+F combined, read-out: AUC0-t Median", "value": 6.01, "unit": "µg·h/mL"}, {"measurement": "AUC(0-inf)", "setting": "16 mg/kg/day, 16 mg/kg/day PO, DFMO 50 mg/kg/day, Day 28, M+F combined, read-out: AUC0-∞ Mean", "value": 9.59, "unit": "µg·h/mL"}, {"measurement": "AUC(0-inf)", "setting": "16 mg/kg/day, 16 mg/kg/day PO, DFMO 50 mg/kg/day, Day 28, M+F combined, read-out: AUC0-∞ Median", "value": 6.08, "unit": "µg·h/mL"}, {"measurement": "Cmax", "setting": "16 mg/kg/day, 16 mg/kg/day PO, DFMO 50 mg/kg/day, Day 28, M+F combined, read-out: Cmax Mean", "value": 0.262, "unit": "µg/mL"}, {"measurement": "Cmax", "setting": "16 mg/kg/day, 16 mg/kg/day PO, DFMO 50 mg/kg/day, Day 28, M+F combined, read-out: Cmax Median", "value": 0.213, "unit": "µg/mL"}, {"measurement": "Tmax", "setting": "16 mg/kg/day, 16 mg/kg/day PO, DFMO 50 mg/kg/day, Day 28, M+F combined, read-out: Tmax Mean", "value": 6.3, "unit": "h"}, {"measurement": "Tmax", "setting": "16 mg/kg/day, 16 mg/kg/day PO, DFMO 50 mg/kg/day, Day 28, M+F combined, read-out: Tmax Median", "value": 6, "unit": "h"}, {"measurement": "half-life", "setting": "16 mg/kg/day, 16 mg/kg/day PO, DFMO 50 mg/kg/day, Day 28, M+F combined, read-out: t1/2 Mean (converted)", "value": 52.8, "unit": "h"}, {"measurement": "half-life", "setting": "16 mg/kg/day, 16 mg/kg/day PO, DFMO 50 mg/kg/day, Day 28, M+F combined, read-out: t1/2 Median (converted)", "value": 57.8, "unit": "h"}, {"measurement": "AUC(0-t)", "setting": "16 mg/kg/day, 16 mg/kg/day PO, DFMO 200 mg/kg/day, Day 1, M+F combined, read-out: AUC0-24 hr Mean", "value": 2.31, "unit": "µg·h/mL"}, {"measurement": "AUC(0-t)", "setting": "16 mg/kg/day, 16 mg/kg/day PO, DFMO 200 mg/kg/day, Day 1, M+F combined, read-out: AUC0-24 hr Median", "value": 2.47, "unit": "µg·h/mL"}, {"measurement": "Cmax", "setting": "16 mg/kg/day, 16 mg/kg/day PO, DFMO 200 mg/kg/day, Day 1, M+F combined, read-out: Cmax Mean", "value": 0.152, "unit": "µg/mL"}, {"measurement": "Cmax", "setting": "16 mg/kg/day, 16 mg/kg/day PO, DFMO 200 mg/kg/day, Day 1, M+F combined, read-out: Cmax Median", "value": 0.171, "unit": "µg/mL"}, {"measurement": "Tmax", "setting": "16 mg/kg/day, 16 mg/kg/day PO, DFMO 200 mg/kg/day, Day 1, M+F combined, read-out: Tmax Mean", "value": 8.4, "unit": "h"}, {"measurement": "Tmax", "setting": "16 mg/kg/day, 16 mg/kg/day PO, DFMO 200 mg/kg/day, Day 1, M+F combined, read-out: Tmax Median", "value": 6, "unit": "h"}, {"measurement": "AUC(0-t)", "setting": "32 mg/kg/day, 32 mg/kg/day PO, DFMO 0, Day 1, M+F combined, read-out: AUC0-24 hr Mean", "value": 3.59, "unit": "µg·h/mL"}, {"measurement": "AUC(0-t)", "setting": "32 mg/kg/day, 32 mg/kg/day PO, DFMO 0, Day 1, M+F combined, read-out: AUC0-24 hr Median", "value": 3.64, "unit": "µg·h/mL"}, {"measurement": "Cmax", "setting": "32 mg/kg/day, 32 mg/kg/day PO, DFMO 0, Day 1, M+F combined, read-out: Cmax Mean", "value": 0.214, "unit": "µg/mL"}, {"measurement": "Cmax", "setting": "32 mg/kg/day, 32 mg/kg/day PO, DFMO 0, Day 1, M+F combined, read-out: Cmax Median", "value": 0.224, "unit": "µg/mL"}, {"measurement": "Tmax", "setting": "32 mg/kg/day, 32 mg/kg/day PO, DFMO 0, Day 1, M+F combined, read-out: Tmax Mean", "value": 8.6, "unit": "h"}, {"measurement": "Tmax", "setting": "32 mg/kg/day, 32 mg/kg/day PO, DFMO 0, Day 1, M+F combined, read-out: Tmax Median", "value": 9, "unit": "h"}, {"measurement": "AUC(0-t)", "setting": "32 mg/kg/day, 32 mg/kg/day PO, DFMO 0, Day 28, M+F combined, read-out: AUC0-24 hr Mean", "value": 9.41, "unit": "µg·h/mL"}, {"measurement": "AUC(0-t)", "setting": "32 mg/kg/day, 32 mg/kg/day PO, DFMO 0, Day 28, M+F combined, read-out: AUC0-24 hr Median", "value": 8.76, "unit": "µg·h/mL"}, {"measurement": "AUC(0-t)", "setting": "32 mg/kg/day, 32 mg/kg/day PO, DFMO 0, Day 28, M+F combined, read-out: AUC0-t Mean", "value": 24.7, "unit": "µg·h/mL"}, {"measurement": "AUC(0-t)", "setting": "32 mg/kg/day, 32 mg/kg/day PO, DFMO 0, Day 28, M+F combined, read-out: AUC0-t Median", "value": 24.3, "unit": "µg·h/mL"}, {"measurement": "AUC(0-inf)", "setting": "32 mg/kg/day, 32 mg/kg/day PO, DFMO 0, Day 28, M+F combined, read-out: AUC0-∞ Mean", "value": 24.8, "unit": "µg·h/mL"}, {"measurement": "AUC(0-inf)", "setting": "32 mg/kg/day, 32 mg/kg/day PO, DFMO 0, Day 28, M+F combined, read-out: AUC0-∞ Median", "value": 24.4, "unit": "µg·h/mL"}, {"measurement": "Cmax", "setting": "32 mg/kg/day, 32 mg/kg/day PO, DFMO 0, Day 28, M+F combined, read-out: Cmax Mean", "value": 0.62, "unit": "µg/mL"}, {"measurement": "Cmax", "setting": "32 mg/kg/day, 32 mg/kg/day PO, DFMO 0, Day 28, M+F combined, read-out: Cmax Median", "value": 0.62, "unit": "µg/mL"}, {"measurement": "Tmax", "setting": "32 mg/kg/day, 32 mg/kg/day PO, DFMO 0, Day 28, M+F combined, read-out: Tmax Mean", "value": 4.3, "unit": "h"}, {"measurement": "Tmax", "setting": "32 mg/kg/day, 32 mg/kg/day PO, DFMO 0, Day 28, M+F combined, read-out: Tmax Median", "value": 4, "unit": "h"}, {"measurement": "half-life", "setting": "32 mg/kg/day, 32 mg/kg/day PO, DFMO 0, Day 28, M+F combined, read-out: t1/2 Mean (converted)", "value": 48.7, "unit": "h"}, {"measurement": "half-life", "setting": "32 mg/kg/day, 32 mg/kg/day PO, DFMO 0, Day 28, M+F combined, read-out: t1/2 Median (converted)", "value": 53.2, "unit": "h"}]}
